The source made the active and inactive calls. How the calls were made is not given here.
Test system: CCRIS mutagenicity, Ames/micronucleus/aberration tests
Assay: CCRIS mutagenicity studies
[1] = Test System: AMES SALMONELLA TYPHIMURIUM, Strain/Indicator: TA98, Metabolic Activation: NONE, Method: PREINCUBATION
[2] = Test System: AMES SALMONELLA TYPHIMURIUM, Strain/Indicator: TA100, Metabolic Activation: NONE, Method: PREINCUBATION

In the case of `COc1ccc(N)c(OC)c1`, the mutagenic call (Test System: AMES SALMONELLA TYPHIMURIUM, Strain/Indicator: TA98, Metabolic Activation: HAMSTER, LIVER, S-9, AROCLOR 1254 (30%), Method: PREINCUBATION) is reported as “active; positive”, the mutagenic call (Test System: AMES SALMONELLA TYPHIMURIUM, Strain/Indicator: TA98, Metabolic Activation: HAMSTER, LIVER, S-9, Method: STANDARD PLATE) is reported as “inactive; negative” and the mutagenic call (Test System: AMES SALMONELLA TYPHIMURIUM, Strain/Indicator: TA98, Metabolic Activation: MOUSE, LIVER, S-9, AROCLOR 1254, Method: STANDARD PLATE) is reported as “inactive; negative”. For the same molecule, the mutagenic call (Test System: AMES SALMONELLA TYPHIMURIUM, Strain/Indicator: TA98, Metabolic Activation: MOUSE, LIVER, S-9, Method: STANDARD PLATE) was “inactive; negative”, the mutagenic call [1] was “inactive; negative” and the mutagenic call (Test System: AMES SALMONELLA TYPHIMURIUM, Strain/Indicator: TA98, Metabolic Activation: NONE, Method: STANDARD PLATE) was “inactive; negative”. The mutagenic call (Test System: AMES SALMONELLA TYPHIMURIUM, Strain/Indicator: TA98, Metabolic Activation: RAT, LIVER, S-9, AROCLOR 1254 (30%), Method: PREINCUBATION) was “active; positive”, the mutagenic call (Test System: AMES SALMONELLA TYPHIMURIUM, Strain/Indicator: TA98, Metabolic Activation: RAT, LIVER, S-9, Method: STANDARD PLATE) was “inactive; negative” and the mutagenic call (Test System: AMES SALMONELLA TYPHIMURIUM, Strain/Indicator: TA100, Metabolic Activation: HAMSTER, LIVER, S-9, AROCLOR 1254 (30%), Method: PREINCUBATION) was “active; positive”. The mutagenic call (Test System: AMES SALMONELLA TYPHIMURIUM, Strain/Indicator: TA100, Metabolic Activation: HAMSTER, LIVER, S-9, AROCLOR 1254, Method: STANDARD PLATE) was “inactive; negative”, the mutagenic call (Test System: AMES SALMONELLA TYPHIMURIUM, Strain/Indicator: TA100, Metabolic Activation: HAMSTER, LIVER, S-9, Method: STANDARD PLATE) was “inactive; negative” and the mutagenic call (Test System: AMES SALMONELLA TYPHIMURIUM, Strain/Indicator: TA100, Metabolic Activation: MOUSE, LIVER, S-9, AROCLOR 1254, Method: STANDARD PLATE) was “inactive; negative”. The mutagenic call (Test System: AMES SALMONELLA TYPHIMURIUM, Strain/Indicator: TA100, Metabolic Activation: MOUSE, LIVER, S-9, Method: STANDARD PLATE) was “inactive; negative”, the mutagenic call [2] was “inactive; negative” and the mutagenic call (Test System: AMES SALMONELLA TYPHIMURIUM, Strain/Indicator: TA100, Metabolic Activation: NONE, Method: STANDARD PLATE) was “inactive; negative”. The mutagenic call (Test System: AMES SALMONELLA TYPHIMURIUM, Strain/Indicator: TA100, Metabolic Activation: RAT, LIVER, S-9, AROCLOR 1254 (30%), Method: PREINCUBATION) was “inactive; negative”, the mutagenic call (Test System: AMES SALMONELLA TYPHIMURIUM, Strain/Indicator: TA100, Metabolic Activation: RAT, LIVER, S-9, AROCLOR 1254, Method: STANDARD PLATE) was “inactive; negative” and the mutagenic call (Test System: AMES SALMONELLA TYPHIMURIUM, Strain/Indicator: TA100, Metabolic Activation: RAT, LIVER, S-9, Method: STANDARD PLATE) was “inactive; negative”. For the same molecule, the mutagenic call (Test System: AMES SALMONELLA TYPHIMURIUM, Strain/Indicator: TA1535, Metabolic Activation: HAMSTER, LIVER, S-9, AROCLOR 1254, Method: STANDARD PLATE) was “inactive; negative”, the mutagenic call (Test System: AMES SALMONELLA TYPHIMURIUM, Strain/Indicator: TA1535, Metabolic Activation: HAMSTER, LIVER, S-9, Method: STANDARD PLATE) was “inactive; negative” and the mutagenic call (Test System: AMES SALMONELLA TYPHIMURIUM, Strain/Indicator: TA1535, Metabolic Activation: MOUSE, LIVER, S-9, AROCLOR 1254, Method: STANDARD PLATE) was “inactive; negative”. The mutagenic call (Test System: AMES SALMONELLA TYPHIMURIUM, Strain/Indicator: TA1535, Metabolic Activation: MOUSE, LIVER, S-9, Method: STANDARD PLATE) was “inactive; negative”, the mutagenic call (Test System: AMES SALMONELLA TYPHIMURIUM, Strain/Indicator: TA1535, Metabolic Activation: NONE, Method: STANDARD PLATE) was “inactive; negative” and the mutagenic call (Test System: AMES SALMONELLA TYPHIMURIUM, Strain/Indicator: TA1535, Metabolic Activation: RAT, LIVER, S-9, AROCLOR 1254, Method: STANDARD PLATE) was “inactive; negative”. The mutagenic call (Test System: AMES SALMONELLA TYPHIMURIUM, Strain/Indicator: TA1535, Metabolic Activation: RAT, LIVER, S-9, Method: STANDARD PLATE) was “inactive; negative”, the mutagenic call (Test System: AMES SALMONELLA TYPHIMURIUM, Strain/Indicator: TA1537, Metabolic Activation: HAMSTER, LIVER, S-9, Method: STANDARD PLATE) was “inactive; negative” and the mutagenic call (Test System: AMES SALMONELLA TYPHIMURIUM, Strain/Indicator: TA1537, Metabolic Activation: MOUSE, LIVER, S-9, AROCLOR 1254, Method: STANDARD PLATE) was “inactive; negative”. The mutagenic call (Test System: AMES SALMONELLA TYPHIMURIUM, Strain/Indicator: TA1537, Metabolic Activation: MOUSE, LIVER, S-9, Method: STANDARD PLATE) was “inactive; negative”, the mutagenic call (Test System: AMES SALMONELLA TYPHIMURIUM, Strain/Indicator: TA1537, Metabolic Activation: NONE, Method: STANDARD PLATE) was “inactive; negative” and the mutagenic call (Test System: AMES SALMONELLA TYPHIMURIUM, Strain/Indicator: TA1537, Metabolic Activation: RAT, LIVER, S-9, AROCLOR 1254, Method: STANDARD PLATE) was “inactive; negative”. The mutagenic call (Test System: AMES SALMONELLA TYPHIMURIUM, Strain/Indicator: TA1537, Metabolic Activation: RAT, LIVER, S-9, Method: STANDARD PLATE) was “inactive; negative”, the mutagenic call (Test System: AMES SALMONELLA TYPHIMURIUM, Strain/Indicator: TA1538, Metabolic Activation: MOUSE, LIVER, S-9, Method: STANDARD PLATE) was “inactive; negative” and the mutagenic call (Test System: AMES SALMONELLA TYPHIMURIUM, Strain/Indicator: TA1538, Metabolic Activation: NONE, Method: STANDARD PLATE) was “inactive; negative”. For the same molecule, the mutagenic call (Test System: AMES SALMONELLA TYPHIMURIUM, Strain/Indicator: TA1538, Metabolic Activation: RAT, LIVER, S-9, Method: STANDARD PLATE) was “inactive; negative”, the mutagenic call (Test System: E. COLI, Strain/Indicator: WP2 UVRA, Metabolic Activation: HAMSTER, LIVER, S-9, AROCLOR 1254, Method: STANDARD PLATE) was “inactive; negative” and the mutagenic call (Test System: E. COLI, Strain/Indicator: WP2 UVRA, Metabolic Activation: HAMSTER, LIVER, S-9, Method: STANDARD PLATE) was “inactive; negative”. The mutagenic call (Test System: E. COLI, Strain/Indicator: WP2 UVRA, Metabolic Activation: MOUSE, LIVER, S-9, AROCLOR 1254, Method: STANDARD PLATE) was “inactive; negative”, the mutagenic call (Test System: E. COLI, Strain/Indicator: WP2 UVRA, Metabolic Activation: MOUSE, LIVER, S-9, Method: STANDARD PLATE) was “inactive; negative” and the mutagenic call (Test System: E. COLI, Strain/Indicator: WP2 UVRA, Metabolic Activation: NONE, Method: STANDARD PLATE) was “inactive; negative”. For the same molecule, the mutagenic call (Test System: E. COLI, Strain/Indicator: WP2 UVRA, Metabolic Activation: RAT, LIVER, S-9, AROCLOR 1254, Method: STANDARD PLATE) was “inactive; negative” and the mutagenic call (Test System: E. COLI, Strain/Indicator: WP2 UVRA, Metabolic Activation: RAT, LIVER, S-9, Method: STANDARD PLATE) was “inactive; negative”.

For `CC(C)(C)OC(=O)N/N=C/c1c[n+]([O-])c2ccccc2[n+]1[O-]`, the mutagenic call [1] was “active; positive”, the mutagenic call (Test System: AMES SALMONELLA TYPHIMURIUM, Strain/Indicator: TA98, Metabolic Activation: S-9, Method: PREINCUBATION) was “active; positive” and the mutagenic call [2] was “active; positive”. The mutagenic call (Test System: AMES SALMONELLA TYPHIMURIUM, Strain/Indicator: TA100, Metabolic Activation: S-9, Method: PREINCUBATION) was “active; positive”, the mutagenic call (Test System: E. COLI, Strain/Indicator: WP2 UVRA (PKM101), Metabolic Activation: NONE) was “active; positive” and the mutagenic call (Test System: E. COLI, Strain/Indicator: WP2 UVRA (PKM101), Metabolic Activation: S-9) was “active; positive”.

`NC(=O)N(c1ccccc1)c1ccc(C(=O)O)cc1` was tested, and the mutagenic call (Test System: AMES SALMONELLA TYPHIMURIUM, Strain/Indicator: TA98, Metabolic Activation: MAIZE SEEDLING, S-14, Method: PREINCUBATION) was “active; positive”, the mutagenic call (Test System: AMES SALMONELLA TYPHIMURIUM, Strain/Indicator: TA98, Metabolic Activation: MOUSE, LIVER, S-9, Method: PREINCUBATION) was “inactive; negative” and the mutagenic call [1] was “inactive; negative”. For the same molecule, the mutagenic call (Test System: AMES SALMONELLA TYPHIMURIUM, Strain/Indicator: TA100, Metabolic Activation: MAIZE SEEDLING, S-14, Method: PREINCUBATION) was “inactive; negative”, the mutagenic call (Test System: AMES SALMONELLA TYPHIMURIUM, Strain/Indicator: TA100, Metabolic Activation: MOUSE, LIVER, S-9, Method: PREINCUBATION) was “inactive; negative” and the mutagenic call [2] was “inactive; negative”. For the same molecule, the mutagenic call (Test System: AMES SALMONELLA TYPHIMURIUM, Strain/Indicator: TA1535, Metabolic Activation: NONE, Method: PREINCUBATION) was “inactive; negative”, the mutagenic call (Test System: AMES SALMONELLA TYPHIMURIUM, Strain/Indicator: TA1537, Metabolic Activation: NONE, Method: PREINCUBATION) was “inactive; negative” and the mutagenic call (Test System: AMES SALMONELLA TYPHIMURIUM, Strain/Indicator: TA1538, Metabolic Activation: NONE, Method: PREINCUBATION) was “inactive; negative”.

— PubChem BioAssay AID1259407 (Chemical Carcinogenesis Research Information System (CCRIS), 2018)
